Assay results reported in ChEMBL document CHEMBL1150506, “S-nitrosation of proteins by N-methyl-N-nitrosoanilines” (Bioorg Med Chem Lett, 1996).

Biological target: T1, Papain (Carica papaya, UniProt P00784)
T1 sequence (P00784 whole entry): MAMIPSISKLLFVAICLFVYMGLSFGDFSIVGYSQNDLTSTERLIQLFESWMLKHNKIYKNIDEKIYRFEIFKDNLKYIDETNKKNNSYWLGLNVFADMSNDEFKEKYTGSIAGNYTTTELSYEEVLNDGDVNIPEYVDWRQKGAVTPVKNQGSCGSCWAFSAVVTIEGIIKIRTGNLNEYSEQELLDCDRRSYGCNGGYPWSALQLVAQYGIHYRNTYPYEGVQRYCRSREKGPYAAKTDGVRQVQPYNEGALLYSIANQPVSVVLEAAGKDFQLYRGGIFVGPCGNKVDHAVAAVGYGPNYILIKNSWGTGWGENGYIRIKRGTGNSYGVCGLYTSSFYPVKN
Experiment: (§1) Pseudo-first order rate constant for inhibition of thiol-dependent papain enzyme

Compared with `CN(N=O)c1ccc(Cl)cc1`, `CN(N=O)c1ccccc1` is higher in “pseudo-first-order inhibition rate constant” value: 0.017 min⁻¹ for the first, 0.057 min⁻¹ for the second.

Compared with `CN(N=O)c1cccc(O)c1`, `CN(N=O)c1ccccc1O` is lower in “pseudo-first-order inhibition rate constant” value: 0.036 min⁻¹ for the first, 0.011 min⁻¹ for the second.

For `CN(N=O)c1ccccc1[N+](=O)[O-]`, the “pseudo-first-order inhibition rate constant” value was 0.026 min⁻¹.

Biological target: not listed separately
Experiment: as §1

Going from `CN(N=O)c1ccc(O)cc1` to `CN(C)c1ccc(N(C)N=O)cc1`, the Ki rises from 0.009 min⁻¹ to 0.243 min⁻¹.

For `CN(N=O)c1cc(O)ccc1O` [DEPHOSTATIN], the Ki was 0.328 min⁻¹.
